Our source for the IC50, IC90 and CC50 values is PubChem BioAssay AID1626 (SRMLSC, 2009).

The test system of the experiment is M. tuberculosis H37Rv growth inhibition. Briefly: M. tuberculosis H37Rv growth inhibitors, H37Rv strain (AID 1626). The conditions noted are these: for IC90: measured here: IC90 against H37Rv; for CC50: measured here: Vero cell cytotoxicity.

For `CSc1cccc(NC(=O)CSc2nnc(C)s2)c1`, the IC50 is 97.1 µM and the IC90 is above 100 µM.

For `S=c1[nH]c2ccc3ccccc3c2[nH]1`, the IC50 is 23.7 µM, the IC90 was above 100 µM and the CC50 was above 40 µM.

As to `CCOC(=O)c1ccc(Nc2cc3ccccc3c(=O)[nH]2)cc1`, the concentration for half-maximal inhibition (IC50) is 13.4 µM and the IC90 was above 100 µM.

Consider `O=[N+]([O-])c1cccn2cc(-c3ccc(Br)cc3)nc12`, for which the IC50 was 18.8 µM, the 90% effect concentration (IC90) was above 100 µM and the CC50 came to 27.1 µM.

For the compound `O=C(/C=C/c1ccnc2ccccc12)c1cccs1`, the IC50 was 17.6 µM, the IC90 was 24.6 µM and the CC50 is above 40 µM.

With `COc1cccc(-c2nnc(NC(=O)c3ccccc3Br)o2)c1`, the half-inhibitory concentration (IC50) was 3.79 µM, the 90% effect concentration (IC90) stood at 9.35 µM and the half-maximal cytotoxic concentration (CC50) was above 40 µM.

In the case of `CC(C)(C)NC(=O)COC(=O)c1cc(Br)ccc1Cl`, the IC50 is 11.9 µM and the IC90 was above 100 µM.

On to `Cc1nc2ccc(N)cc2s1`, for which the IC50 is 0.6 µM and the concentration for an effect of 90% (IC90) was above 100 µM.

In the case of `CCc1ccc2[nH]c(O)c(N=Nc3nc(-c4ccccc4)cs3)c2c1`, the half-maximal inhibitory concentration (IC50) was 1.81 µM, the IC90 stood at 3.44 µM and the CC50 is 37 µM.

On to `OC(COCC(F)(F)C(F)(F)C(F)(F)C(F)F)Cn1c2ccc(Cl)cc2c2cc(Cl)ccc21` (centres undefined), for which the IC50 is 7.11 µM, the IC90 was determined as 9.92 µM and the CC50 is 13.3 µM.

For the compound `COc1ccc(NC2(c3ccc(Cl)cc3)C(=O)c3ccccc3C2=O)cc1`, the 90% effect concentration (IC90) was above 100 µM.

Regarding `CCOc1ccc2c3c(c(=O)oc2c1OCC)CCCC3`, the IC50 was 7.11 µM and the IC90 was found to be 12.8 µM.

Regarding `CCN(CC)c1ccc(N=Cc2ccc([N+](=O)[O-])o2)cc1`, the half-maximal inhibitory concentration (IC50) was 8.8 µM, the 90% effect concentration (IC90) worked out at 45.6 µM and the CC50 was above 40 µM.

`CCOC(=O)Cc1csc(NC(=O)c2c(O)c3ccccc3n(CCC(C)C)c2=O)n1`: the concentration for half-maximal inhibition (IC50) was below 0.195 µM, the concentration for an effect of 90% (IC90) came to 0.224 µM and the 50% cytotoxic concentration (CC50) amounted to 8.48 µM.

As to `CC(=O)Nc1cccc(C(=O)/C=C/c2ccc(Br)cc2)c1`, the half-inhibitory concentration (IC50) is 6.48 µM, the IC90 amounted to 9.82 µM and the CC50 turned out to be 10.7 µM.

`Oc1c(CN2CCc3ccccc3C2)cc(Cl)c2cccnc12`: the 50% inhibitory concentration (IC50) was 7.65 µM, the IC90 stood at 9.8 µM and the CC50 was 4.88 µM.

As for `CCCCCc1cc(=O)oc2c(C(CCN3CCCCC3)c3ccc(OC)cc3)c(OC)cc(OC)c12` (centres undefined), the IC50 is 2.86 µM, the 90% effect concentration (IC90) stood at 3.91 µM and the cytotoxic concentration (CC50) turned out to be 14.9 µM.

Regarding `Clc1ccc2c(c1)C(c1ccccc1Cl)=NCc1nnc(N3CCN(CCOc4ccccc4)CC3)n1-2`, the concentration for half-maximal inhibition (IC50) is 12.5 µM, the IC90 came out at 16.7 µM and the 50% cytotoxic concentration (CC50) was above 40 µM.

On to `O=C1C2C3C=CC(C3)C2C(=O)N1c1ccc(-c2nc3ccccc3c(=O)o2)cc1` (centres undefined), for which the IC50 was 9.33 µM and the IC90 amounted to 23.1 µM.

On to `CCOC(=O)c1ccc(NC(=O)c2cc3ccccc3o2)cc1`, for which the concentration for half-maximal inhibition (IC50) was 4.67 µM and the IC90 was above 100 µM.

On to `Clc1ccc(OCCCNCc2ccccc2)c(Br)c1`, for which the half-maximal inhibitory concentration (IC50) was 23.2 µM, the concentration for an effect of 90% (IC90) was determined as 25.1 µM and the cytotoxic concentration (CC50) was above 40 µM.

Take `CCOC(=O)Cc1ccc(NC(=O)c2ccc(C(C)(C)C)cc2)cc1`: the concentration for half-maximal inhibition (IC50) was 35.6 µM, the 90% effect concentration (IC90) was above 100 µM and the CC50 is above 40 µM.

Turning to `COC(=O)COc1ccc2c(=O)c(-c3ccccc3OC)coc2c1`, the 50% inhibitory concentration (IC50) is 3.01 µM and the IC90 worked out at 5.62 µM.

With `Cc1nc(SCC(=O)Nc2ccc(OCc3ccccc3)cc2)n[nH]1`, the concentration for half-maximal inhibition (IC50) is 0.406 µM and the 90% effect concentration (IC90) is above 100 µM.

Regarding `Cc1ccc(Cl)c(OC(=O)c2ccc(N3CCOCC3)c([N+](=O)[O-])c2)c1`, the IC50 is 6.6 µM and the IC90 was above 100 µM.

In the case of `Nc1nc(COc2ccc(Cl)cc2)cs1`, the concentration for an effect of 90% (IC90) was above 100 µM.

The IC50 is the concentration that inhibits the measured activity by half. Broadly, the IC90 is the concentration needed for an effect of 90%. As a reminder, the CC50 is the concentration that lowers cell viability or growth by half. A lower CC50 goes with greater toxicity to the cells.
